From patent US8796253B2, “Heteroaryl substituted pyrazole derivatives useful for treating hyper-proliferative disorders and diseases associated with angiogenesis” (Bayer Intellectual Property GmbH, priority 2007, dated 2014) come the findings set out here.

The term IC50 denotes the concentration that inhibits the measured activity by half.

The structures appear in SMILES notation.

The first test deals with HCT-116 cells stably transfected with a Luciferase reporter gene under the control of HIF-responsive element. Briefly: HIF-Luciferase Assay. In kind it is cell-based. To be noted: Homo sapiens, HCT-116, HIF-Luciferase Assay, HCT-116 reporter cells, overnight at 1% oxygen; group >10, unit inferred. The method, then:
HCT-116 cells stably transfected with a Luciferase reporter gene under the control of HIF-responsive element were plated in white 96- or 384-well plates at 30,000 or 5,000 cells/well, respectively, in 50 μL/well media (RPMI with 10% fetal bovine serum and 100 μg/mL Hygromycin). Cells were incubated overnight at 37° C. in a humidified incubator containing 5% CO2 under normal oxygen. The next day test compounds were added to the wells at various concentrations (0-10 μM, 0.1% final DMSO concentration) and placed in a hypoxic chamber overnight at 1% oxygen. Following the exposure to hypoxic conditions, 50 μL/well of Bright Glo reagent (Promega, Wisconsin, USA) was added to the wells and luminescence was measured after 5 min. Cells incubated under normal oxygen levels were used as background control. […] Compounds that have IC50 values between 1 μM and 10 μM include those of Examples 8, 16, 38, 39, 40, 41, 42, 43, 47, 48, 53, 54, 56, 57, 66, 69, and 72.
Take `Cc1ccc(Cn2nc(-c3nc4cc(C(C)(C)c5ccccc5)ccc4o3)cc2C)cc1` [Example 32, 2-[5-methyl-1-(4-methylbenzyl)-1H-pyrazol-3-yl]-5-(1-methyl-1-phenylethyl)-1,3-benzoxazole]: the IC50 was over 10000 nM.
Take `Cc1ccc(Cn2nc(-c3nc4cc(Cc5ccccc5)ccc4o3)cc2C)cc1` [Example 33, 5-benzyl-2-[5-methyl-1-(4-methylbenzyl)-1H-pyrazol-3-yl]-1,3-benzoxazole]: the IC50 was over 10000 nM.

The test is the same for the next values; noted with them: Homo sapiens, HCT-116, HIF-Luciferase Assay, HCT-116 reporter cells, overnight at 1% oxygen; individual values.
For `Cc1cc(-c2nc(-c3ccc(OC(F)(F)F)cc3)no2)nn1Cc1ccc(C#N)cc1` [Example 121, 4-[(5-methyl-3-3-[4-(trifluoromethoxy)phenyl]-1,2,4-oxadiazol-5-yl-1H-pyrazol-1-yl)methyl]benzonitrile], the midpoint of inhibition, the IC50, lay at 30 nM.
Still for that read-out and setting: as for `Cc1ccc(Cn2nc(-c3nc(-c4ccc(-c5ccccc5)cc4)c[nH]3)cc2C)cc1` [Example 67, 3-(4-biphenyl-4-yl-1H-imidazol-2-yl)-5-methyl-1-(4-methylbenzyl)-1H-pyrazole], the figure is 8 nM; as for `Cc1ccc(Cn2nc(-c3nc(-c4ccc(SC(F)(F)F)cc4)no3)cc2C)cc1` [Example 105, 5-[5-methyl-1-(4-methylbenzyl)-1H-pyrazol-3-yl]-3-4-[(trifluoromethyl)sulfanyl]phenyl-1,2,4-oxadiazole], 30 nM; as for `Cc1ccc(Cn2nc(-c3nc(-c4ccc(C5CCCCC5)cc4)co3)cc2C)cc1` [Example 81, 4-(4-Cyclohex-1-ylphenyl)-2-[5-methyl-1-(4-methylbenzyl)-1H-pyrazol-3-yl]-1,3-oxazole], 50 nM.
`Cc1ccc(Cn2nc(-c3nc4ccc(-c5ccc(Cl)cc5)cc4[nH]3)cc2C)cc1` [Example 64, 6-(4-chlorophenyl)-2-[5-methyl-1-(4-methylbenzyl)-1H-pyrazol-3-yl]-1H-benzimidazole] yielded an IC50 of 3 nM.

The same test, now with this note: Homo sapiens, HCT-116, HIF-Luciferase Assay, HCT-116 reporter cells, overnight at 1% oxygen; potency groups.
As for `Cc1ccc(Cn2nc(-c3nc4ccc(OC(F)(F)F)cc4[nH]3)cc2C)cc1` [Example 58, 2-[5-methyl-1-(4-methylbenzyl)-1H-pyrazol-3-yl]-6-(trifluoromethoxy)-1H-benzimidazole], the IC50 was at most 1000 nM.
On the same count and under the same terms, as for `Cc1ccc(Cn2nc(-c3nc(-c4ccc(N5CCOCC5)cc4)no3)cc2C)cc1` [Example 21, 4-(4-{5-[5-Methyl-1-(4-methylbenzyl)-1H-pyrazol-3-yl]-1,2,4-oxadiazol-3-yl}phenyl)morpholine], the figure is at most 1000 nM.
Same read-out and setting: under `Cc1ccc(Cn2nc(-c3nc4ccc(C5CCCCC5)cc4[nH]3)cc2C)cc1` [Example 51, 6-cyclohexyl-2-[5-methyl-1-(4-methylbenzyl)-1H-pyrazol-3-yl]-1H-benzimidazole] stands at most 1000 nM; under `Cc1ccc(Cn2nc(-c3nc4ccccc4[nH]3)cc2C)cc1` [Example 38, 2-[5-methyl-1-(4-methylbenzyl)-1H-pyrazol-3-yl]-1H-benzimidazole], 1000 to 10000 nM.
Still for that read-out and setting: under `Cc1ccc(Cn2nc(-c3nc(-c4ccc(-c5ccccc5)cc4)c[nH]3)cc2C)cc1` [Example 67, 3-(4-biphenyl-4-yl-1H-imidazol-2-yl)-5-methyl-1-(4-methylbenzyl)-1H-pyrazole] stands at most 1000 nM.
`Cc1ccc(Cn2nc(-c3nc4ccc(C(=O)c5ccccc5)cc4[nH]3)cc2C)cc1` [Example 46, {2-[5-methyl-1-(4-methylbenzyl)-1H-pyrazol-3-yl]-1H-benzimidazol-6-yl}(phenyl)methanone] showed an IC50 of at most 1000 nM.
The same measure, in the same setting: under `Cc1ccc(Cn2nc(-c3nc4ccc(Br)cc4[nH]3)cc2C)cc1` [Example 37, 6-Bromo-2-[5-methyl-1-(4-methylbenzyl)-1H-pyrazol-3-yl]-1H-benzimidazole] stands at most 1000 nM.
The same measure, in the same setting: under `Cc1ccc(Cn2nc(-c3nc4c(C)cccc4[nH]3)cc2C)cc1` [Example 40, 4-methyl-2-[5-methyl-1-(4-methylbenzyl)-1H-pyrazol-3-yl]-1H-benzimidazole] stands 1000 to 10000 nM.
`Cc1ccc(Cn2nc(-c3nc(-c4cccnc4)no3)cc2C)cc1` [Example 16, 3-{5-[5-methyl-1-(4-methylbenzyl)-1H-pyrazol-3-yl]-1,2,4-oxadiazol-3-yl}pyridine] yielded an IC50 of 1000 to 10000 nM.
On the same count and under the same terms, as for `Cc1ccc(Cn2nc(-c3nc4cc(-c5cccc(F)c5)ccc4o3)cc2C)cc1` [Example 34, 5-(3-fluorophenyl)-2-[5-methyl-1-(4-methylbenzyl)-1H-pyrazol-3-yl]-1,3-benzoxazole], the figure is at most 1000 nM; as for `Cc1ccc(Cn2nc(-c3nc4c(C)cc(Br)cc4[nH]3)cc2C)cc1` [Example 57, 6-bromo-4-methyl-2-[5-methyl-1-(4-methylbenzyl)-1H-pyrazol-3-yl]-1H-benzimidazole], 1000 to 10000 nM.
Still for that read-out and setting: under `Cc1ccc(Cn2nc(-c3nc4cc(-c5ccccc5F)ccc4o3)cc2C)cc1` [Example 35, 5-(2-fluorophenyl)-2-[5-methyl-1-(4-methylbenzyl)-1H-pyrazol-3-yl]-1,3-benzoxazole] stands at most 1000 nM; under `Cc1ccc(Cn2nc(-c3nc4ccc(-c5ccccc5F)cc4[nH]3)cc2C)cc1` [Example 60, 6-(2-fluorophenyl)-2-[5-methyl-1-(4-methylbenzyl)-1H-pyrazol-3-yl]-1H-benzimidazole], at most 1000 nM.
For the compound `Cc1ccc(Cn2nc(-c3nc4ccc(Cl)cc4[nH]3)cc2C)cc1` [Example 41, 6-chloro-2-[5-methyl-1-(4-methylbenzyl)-1H-pyrazol-3-yl]-1H-benzimidazole], the IC50 lay in the range of 1000 to 10000 nM.
On the same count and under the same terms, under `Cc1ccc(Cn2nc(-c3nc(-c4ccc(Br)cc4)no3)cc2C)cc1` [Example 3, 3-(4-bromophenyl)-5-[5-methyl-1-(4-methylbenzyl)-1H-pyrazol-3-yl]-1,2,4-oxadiazole] stands at most 1000 nM; under `Cc1ccc(Cn2nc(C3=NC(c4ccccc4)CO3)cc2C)cc1` (stereo not drawn) [Example 69, 2-[5-Methyl-1-(4-methylbenzyl)-1H-pyrazol-3-yl]-4-phenyl-4,5-dihydro-1,3-oxazole], 1000 to 10000 nM; under `Cc1ccc(Cn2nc(-c3nc(-c4ccc(N5CCCC(C)C5)cc4)no3)cc2C)cc1` (stereo not drawn) [Example 6, 3-methyl-1-(4-{5-[5-methyl-1-(4-methylbenzyl)-1H-pyrazol-3-yl]-1,2,4-oxadiazol-3-yl}phenyl)piperidine], at most 1000 nM.
On to `Cc1ccc(Cn2nc(-c3nc4cc5oc6ccccc6c5cc4[nH]3)cc2C)cc1` [Example 52, 2-[5-methyl-1-(4-methylbenzyl)-1H-pyrazol-3-yl]-1H-[1]benzofuro[2,3-f]benzimidazole], for which the IC50 was at most 1000 nM.
`Cc1ccc(Cn2nc(-c3nc(-c4ccc(-c5ccc(OC(F)(F)F)cc5)cc4)no3)cc2C)cc1` [Example 5, 5-[5-methyl-1-(4-methylbenzyl)-1H-pyrazol-3-yl]-3-[4′-(trifluoromethoxy)biphenyl-4-yl]-1,2,4-oxadiazole] gave an IC50 of at most 1000 nM.
Turning to `Cc1ccc(Cn2nc(-c3nc4ccc(-c5ccc(Cl)cc5)cc4[nH]3)cc2C)cc1` [Example 64, 6-(4-chlorophenyl)-2-[5-methyl-1-(4-methylbenzyl)-1H-pyrazol-3-yl]-1H-benzimidazole], the 50% inhibitory concentration (IC50) was at most 1000 nM.
The same measure, in the same setting: under `Cc1ccc(Cn2nc(-c3nc(-c4ccc(OC(C)C)cc4)no3)cc2C)cc1` [Example 20, 3-(4-Isopropoxyphenyl)-5-[5-methyl-1-(4-methylbenzyl)-1H-pyrazol-3-yl]-1,2,4-oxadiazole] stands at most 1000 nM; under `Cc1ccc(Cn2nc(-c3nc4ccccc4o3)cc2C)cc1` [Example 31, 2-[5-methyl-1-(4-methylbenzyl)-1H-pyrazol-3-yl]-1,3-benzoxazole], at most 1000 nM; under `Cc1ccc(Cn2nc(-c3nc4ccc(-c5ccccc5Cl)cc4[nH]3)cc2C)cc1` [Example 62, 6-(2-chlorophenyl)-2-[5-methyl-1-(4-methylbenzyl)-1H-pyrazol-3-yl]-1H-benzimidazole], at most 1000 nM.
